Measured values taken from PMC9609429 (Pharmaceuticals, 2022).

Tests used:
α2-adrenoceptor = α2-adrenoceptor radioligand binding assay ([3H]-clonidine, rat cerebral cortex)
Protocol: The α1-, α2-, and β1-adrenoceptor radioligand binding assay was carried out on the rat cerebral cortex. […] The brains were homogenized using ULTRA-TURRAX homogenizer in 10 mL of an ice-cold 50 mM Tris–HCl buffer (pH 7.6). Homogenates were centrifuged at 20,000× g for 20 min (0–4 °C). Next, the cell pellet was resuspended in the Tris–HCl buffer and centrifuged again. Radioligand binding assays were performed in plates (MultiScreen/Millipore). The final incubation mixture (volume 300 μL) consisted of 240 μL of the tissue suspension, 30 μL of radioligand solution, and 30 μL of the buffer containing 7–8 concentrations of the tested compound. […] The incubation was terminated by rapid filtration through Whatman GF/C filters using a vacuum manifold (Millipore). The filters were then washed twice with the assay buffer and placed in scintillation vials with a liquid scintillation cocktail. […] All the assays were made in duplicates and the inhibitory constants (Ki) were estimated.

normotensive rats [1] = assay: Influence on blood pressure in normotensive rats; format: in vivo, rat
Protocol: Normotensive rats were anesthetized with thiopental (75 mg/kg ip). The right carotid artery was cannulated with a polyethylene tube filled with heparin solution to allow pressure measurements, using a Datamax apparatus (Columbus Instruments, Columbus, OH, USA). The tested compound was administered intraperitoneally after 15 min of stabilization period and its effect on blood pressure was measured.

D2 receptors = system: D2 receptors; set-up: method as in PMID 34451841; details: previous studies; cited from earlier work
normotensive rats [2] = assay: Effect on a normal electrocardiogram in rats; format: in vivo; set-up: Rate: unit not given here; details: rat; for PR / QRS: in ms (unit assumed)
Protocol: To verify the influence of the tested compound on the normal electrocardiogram (ECG), the experiment was performed. Aspel ASCARD apparatus (standard II lead, with tape speed 50 mm/s and voltage calibration 1 mV = 1 cm) was used for ECG measurements. Normotensive rats were anesthetized with thiopental (75 mg/kg ip). The ECG was recorded prior and 5, 10, 15, 20, 30, 40, 50, 60, and 80 min after intraperitoneal administration of the tested compound. The influence on PQ, QTc interval, QRS complex, and heart rate was evaluated. Bazzett’s formula, QTc = QT/√RR, was used to calculate QTc.

[3] = 1.25 mg/kg ip, from 5 min after injection

Adrenergic Receptors—pKi α2 (α2-adrenoceptor; rat cortex tissue, [3H]-clonidine): 5.72
affinity towards α2-adrenoceptor lower compared with the α1 receptor (α2-adrenoceptor; rat cortex, α1 vs α2): over 600 fold
effect on PR (normotensive rats [2]; 10 mg/kg): no effect
effect on QRS (normotensive rats [2]; 10 mg/kg): no effect
Rate (normotensive rats [2]; 10 mg/kg ip, 0 min): 357.1 ± 22.6
PR (normotensive rats [2]; 10 mg/kg ip, 0 min): 53.9 ± 2.8
QRS (normotensive rats [2]; 10 mg/kg ip, 0 min): 22.6 ± 1.8
Rate (normotensive rats [2]; 10 mg/kg ip, 5 min): 347.3 ± 25.2
PR (normotensive rats [2]; 10 mg/kg ip, 5 min): 53.0 ± 3.3
QRS (normotensive rats [2]; 10 mg/kg ip, 5 min): 21.5 ± 1.4
Rate (normotensive rats [2]; 10 mg/kg ip, 10 min): 347.9 ± 29.2
PR (normotensive rats [2]; 10 mg/kg ip, 10 min): 55.8 ± 2.0
QRS (normotensive rats [2]; 10 mg/kg ip, 10 min): 23.2 ± 3.6
Rate (normotensive rats [2]; 10 mg/kg ip, 15 min): 345.0 ± 32.7
PR (normotensive rats [2]; 10 mg/kg ip, 15 min): 54.9 ± 2.4
QRS (normotensive rats [2]; 10 mg/kg ip, 15 min): 23.5 ± 2.6
Rate (normotensive rats [2]; 10 mg/kg ip, 20 min): 343.4 ± 33.6
PR (normotensive rats [2]; 10 mg/kg ip, 20 min): 53.1 ± 4.4
QRS (normotensive rats [2]; 10 mg/kg ip, 20 min): 23.6 ± 2.9
Rate (normotensive rats [2]; 10 mg/kg ip, 30 min): 338.5 ± 26.3
PR (normotensive rats [2]; 10 mg/kg ip, 30 min): 52.2 ± 4.4
QRS (normotensive rats [2]; 10 mg/kg ip, 30 min): 22.9 ± 1.6
Rate (normotensive rats [2]; 10 mg/kg ip, 40 min): 337.5 ± 25.0
PR (normotensive rats [2]; 10 mg/kg ip, 40 min): 55.6 ± 2.6
QRS (normotensive rats [2]; 10 mg/kg ip, 40 min): 24.5 ± 1.8
Rate (normotensive rats [2]; 10 mg/kg ip, 50 min): 342.2 ± 25.8
PR (normotensive rats [2]; 10 mg/kg ip, 50 min): 53.6 ± 4.4
QRS (normotensive rats [2]; 10 mg/kg ip, 50 min): 23.9 ± 2.5
Rate (normotensive rats [2]; 10 mg/kg ip, 60 min): 344.5 ± 28.9
PR (normotensive rats [2]; 10 mg/kg ip, 60 min): 54.7 ± 3.1
QRS (normotensive rats [2]; 10 mg/kg ip, 60 min): 23.2 ± 1.9
Rate (normotensive rats [2]; 10 mg/kg ip, 80 min): 350.7 ± 28.1
PR (normotensive rats [2]; 10 mg/kg ip, 80 min): 54.9 ± 4.2
QRS (normotensive rats [2]; 10 mg/kg ip, 80 min): 22.0 ± 1.4
effect on PR (normotensive rats [2]; 20 mg/kg): did not affect
effect on QRS (normotensive rats [2]; 20 mg/kg): did not affect
Rate (normotensive rats [2]; 20 mg/kg ip, 0 min): 317.4 ± 26.0
PR (normotensive rats [2]; 20 mg/kg ip, 0 min): 53.1 ± 2.8
QRS (normotensive rats [2]; 20 mg/kg ip, 0 min): 21.8 ± 1.7
Rate (normotensive rats [2]; 20 mg/kg ip, 5 min): 304.2 ± 32.0
PR (normotensive rats [2]; 20 mg/kg ip, 5 min): 52.4 ± 3.4
QRS (normotensive rats [2]; 20 mg/kg ip, 5 min): 20.9 ± 1.2
Rate (normotensive rats [2]; 20 mg/kg ip, 10 min): 278.4 ± 41.8
PR (normotensive rats [2]; 20 mg/kg ip, 10 min): 55.3 ± 1.7
QRS (normotensive rats [2]; 20 mg/kg ip, 10 min): 22.7 ± 3.4
Rate (normotensive rats [2]; 20 mg/kg ip, 15 min): 256.2 ± 52.1
PR (normotensive rats [2]; 20 mg/kg ip, 15 min): 54.2 ± 2.1
QRS (normotensive rats [2]; 20 mg/kg ip, 15 min): 22.8 ± 2.2
Rate (normotensive rats [2]; 20 mg/kg ip, 20 min): 249.9 ± 53.5
PR (normotensive rats [2]; 20 mg/kg ip, 20 min): 52.1 ± 4.2
QRS (normotensive rats [2]; 20 mg/kg ip, 20 min): 22.7 ± 2.5
Rate (normotensive rats [2]; 20 mg/kg ip, 30 min): 246.5 ± 55.6
PR (normotensive rats [2]; 20 mg/kg ip, 30 min): 51.3 ± 4.4
QRS (normotensive rats [2]; 20 mg/kg ip, 30 min): 22.0 ± 1.5
Rate (normotensive rats [2]; 20 mg/kg ip, 40 min): 242.1 ± 53.5
PR (normotensive rats [2]; 20 mg/kg ip, 40 min): 54.6 ± 2.4
QRS (normotensive rats [2]; 20 mg/kg ip, 40 min): 23.6 ± 1.5
Rate (normotensive rats [2]; 20 mg/kg ip, 50 min): 239.2 ± 55.4
PR (normotensive rats [2]; 20 mg/kg ip, 50 min): 52.5 ± 4.6
QRS (normotensive rats [2]; 20 mg/kg ip, 50 min): 22.9 ± 2.3
Rate (normotensive rats [2]; 20 mg/kg ip, 60 min): 239.5 ± 56.6
PR (normotensive rats [2]; 20 mg/kg ip, 60 min): 53.7 ± 3.0
QRS (normotensive rats [2]; 20 mg/kg ip, 60 min): 22.1 ± 1.7
Rate (normotensive rats [2]; 20 mg/kg ip, 80 min): 241.0 ± 64.1
PR (normotensive rats [2]; 20 mg/kg ip, 80 min): 53.8 ± 4.1
QRS (normotensive rats [2]; 20 mg/kg ip, 80 min): 21.0 ± 1.3
SMILES: CCC(CN1CCN(c2ccccc2OC)CC1)NCCCOc1c(C)cccc1C.Cl.Cl (stereo not shown) [HBK-10, N-(3-(2,6-dimethylphenoxy)propyl)-1-(4-(2-methoxyphenyl)piperazin-1-yl)butan-2-amine dihydrochloride]
effect on diastolic blood pressure (normotensive rats [1]; 0.625 mg/kg ip): did not affect
effect on systolic blood pressure (normotensive rats [1]; 0.625 mg/kg ip): did not affect
reduction of diastolic blood pressure (normotensive rats [1]; [3]): 12.5–18.3%
reduction of systolic blood pressure (normotensive rats [1]; [3]): 11.2–18.3%
dose reducing blood pressure relative to median effective dose in adrenaline-induced model (normotensive rats [1]; single ip administration): 10 fold
properties at D2 receptors (D2 receptors): antagonistic properties
dose influencing normal ECG relative to median effective dose in adrenaline-induced arrhythmia model (normotensive rats [2]): 160 fold
effect on QTc (normotensive rats [2]; 10 mg/kg): no effect
effect on heart rate (normotensive rats [2]; 10 mg/kg): no effect
QTc (normotensive rats [2]; 10 mg/kg ip, 0 min): 215.3 ± 19.3
QTc (normotensive rats [2]; 10 mg/kg ip, 5 min): 213.2 ± 20.8
QTc (normotensive rats [2]; 10 mg/kg ip, 10 min): 214.4 ± 20.0
QTc (normotensive rats [2]; 10 mg/kg ip, 15 min): 212.4 ± 12.3
QTc (normotensive rats [2]; 10 mg/kg ip, 20 min): 216.7 ± 13.8
QTc (normotensive rats [2]; 10 mg/kg ip, 30 min): 213.7 ± 19.0
QTc (normotensive rats [2]; 10 mg/kg ip, 40 min): 221.4 ± 16.9
QTc (normotensive rats [2]; 10 mg/kg ip, 50 min): 218.8 ± 11.8
QTc (normotensive rats [2]; 10 mg/kg ip, 60 min): 217.4 ± 22.0
QTc (normotensive rats [2]; 10 mg/kg ip, 80 min): 218.3 ± 25.5
QTc (normotensive rats [2]; 20 mg/kg ip, 0 min): 198.4 ± 6.1
QTc (normotensive rats [2]; 20 mg/kg ip, 5 min): 190.9 ± 8.4
QTc (normotensive rats [2]; 20 mg/kg ip, 10 min): 187.8 ± 14.7
QTc (normotensive rats [2]; 20 mg/kg ip, 15 min): 179.4 ± 16.4
QTc (normotensive rats [2]; 20 mg/kg ip, 20 min): 178.9 ± 21.9
QTc (normotensive rats [2]; 20 mg/kg ip, 30 min): 178 ± 21.6 ms
QTc (normotensive rats [2]; 20 mg/kg ip, 40 min): 175.7 ± 20.5
QTc (normotensive rats [2]; 20 mg/kg ip, 50 min): 179.3 ± 20.7
QTc (normotensive rats [2]; 20 mg/kg ip, 80 min): 173.0 ± 6.6
decrease of heart rate (normotensive rats [2]; 20 mg/kg, 10 min after administration): 12.3%
decrease of heart rate (normotensive rats [2]; 20 mg/kg, 15 min after administration): 19.3%
decrease of QTc (normotensive rats [2]; 20 mg/kg, 15 min post injection): 9.6%
decrease of heart rate (normotensive rats [2]; 20 mg/kg, 20 min after administration): 21.3%
decrease of QTc (normotensive rats [2]; 20 mg/kg, 20 min post injection): 9.8%
decrease of heart rate (normotensive rats [2]; 20 mg/kg, 30 min after administration): 22.3%
decrease of QTc (normotensive rats [2]; 20 mg/kg, 30 min post injection): 10.5%
decrease of heart rate (normotensive rats [2]; 20 mg/kg, 40 min after administration): 23.7%
decrease of QTc (normotensive rats [2]; 20 mg/kg, 40 min post injection): 11.4%
decrease of heart rate (normotensive rats [2]; 20 mg/kg, 50 min after administration): 24.6%
decrease of QTc (normotensive rats [2]; 20 mg/kg, 50 min post injection): 9.6%
decrease of heart rate (normotensive rats [2]; 20 mg/kg, 60 min after administration): 24.5%
decrease of QTc (normotensive rats [2]; 20 mg/kg, 60 min post injection): 8.3%
decrease of heart rate (normotensive rats [2]; 20 mg/kg, 80 min after administration): 24.1%
decrease of QTc (normotensive rats [2]; 20 mg/kg, 80 min post injection): 12.8%
